One data set has as its system Neuronal cortical cells. Briefly: Assay for test compound cytoxicity, MTS (Assay 3(d)). Format: cell-based, mouse. The conditions noted are these: BL6J×129sv, mouse, 4 days.
The subject of data set [1] is Aβ in extract of tissue from post mortem human AD brain. Briefly: Human brain amyloid solubilisation assay (Assay 9, BAS). The conditions noted are these: solubilising plaques relative to PBS. It counts as biochemical. The procedure, abridged: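 Plaque-bearing post mortem AD cortex homogenised in ice-cold PBS pH 7.4 and spun 100,000×g, 30 min to separate PBS-soluble supernatant from insoluble pellet. Aβ in each fraction resolved on Tris-Tricine 10-20% gels, immunoblotted with W02 antibody and ECL, quantified by densitometry against synthetic Aβ40 standards (0.5, 1, 2 ng).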

In data set [2] the test system is Neuronal cortical cells treated with Aβ1-42. Briefly: Assay for Aβ neurotoxicity and Aβ neuroprotection (Assay 3(c)). It counts as cell-based, mouse. The conditions noted are these: 20 uM Aβ1-42, 4 days, MTS.
Data set [3] relates to APP2576 transgenic mouse. Briefly: Effect of administration of test compounds on Aβ deposits in transgenic animals (Assay 11). The conditions noted are these: transgenic mouse brains. Set-up: concentration or dose not given beside the values. Format: in vivo.
A short description of data set [4]: Turbidimetric solubility measurements (Assay 13). The settings on record: kinetic from dmso stock, 1% DMSO, nephelometry. Format: physicochemical. Here is the method:
Turbidimetric Solubility Measurements
The solubility estimate was measured at both pH 2.0 and pH 6.5. This is within the pH range that can be anticipated along the proximal gastrointestinal tract in humans.
The compounds were dissolved in DMSO to appropriate concentrations and then spiked into either 0.01M HCl (approx. pH=2.0) or pH 6.5 isotonic phosphate buffer, the final DMSO concentration being 1%. Samples were then analysed via Nephelometry to determine a solubility range. [as per D. Bevan and R. S. Lloyd, Anal. Chem. 2000, 72, 1781-1787].

A short description of data set [5]: E Log D, chromatographic method (Assay 13). The conditions noted are these: SUPELCOSIL LC-ABZ column with octanol saturated mobile phase, pH 7.4; read-out: E Log D7.4. It counts as physicochemical. Here is the method: Effective Log D values were measured using a chromatographic method employing a SUPELCOSIL LC-ABZ column using an octanol saturated mobile phase at pH 7.4.

Data set [6] deals with APP2576 transgenic mouse. Briefly: Transgenic mouse brain immunohistochemistry, plaque abundance (Assay 15). Format: in vivo. An excerpt: Assay 15. Transgenic Mouse Brain Immunohistochemistry
The APP2576 transgenic mouse (Hsiao et al., 1996) as referred to in Assay 11 were utilized in this assay. The contralateral formalin-fixed mouse brain tissue was coronally cut. Sections (10 μm) were taken from the corresponding sites and treated with 80% formic acid for antigen retrieval. The primary antibody used was monoclonal antibody 1E8, which recognizes epitopes between residues 18 and 22 of Aβ (SmithKline Beecham, UK). Immunoreactivity was developed with secondary antibody linked to horseradish peroxidase (using a 3,39-diaminobenzidinechromagen) (Dako) and alkaline phosphatase (using 5-bromo-4-chloro 3-indoxyl phosphate and nitroblue tetrazolium chloride chromagen) (Dako). Plaque abundance per section was assessed by two operators blinded to treatment according to the following scale:
1=plaques present but very sparse
2=several plaques present
3=numerous plaques visible in restricted areas
4=plaques abundant and not restricted to any particular area.
Intermediate values eg 2.5 were assigned where applicable.
Students' t ‘test was used for comparisons between groups.

In data set [7] the test system is moderately severe AD patients. Briefly: Phase II clinical trial of PBT-1 in Alzheimer's disease (Example 21). It counts as in vivo, human. The settings on record: for Steady state pre-dose levels of PBT-1: blood; for difference in mean change from baseline ADAS-cog score of PBT-1 over placebo: more-severely affected groups. An excerpt:
The performance of the less-severely affected group (ADAS-cog<25) deteriorated negligibly over this interval, so cognitive changes could not be discriminated in this stratum.
The study took place at the AD clinical trials unit, Mental Health Research Institute of Victoria and at the Royal Melbourne Hospital. Criteria for inclusion in the study were: informed consent; a diagnosis of probable AD by NINCDS-ADRDA criteria (McKhann et al., 1984); AD Assessment Scale-cognitive (ADAS-cog) (Rosen et al., 1984) score of 18-45; Mini Mental State Examination (MMSE) (Folstein et al., 1975) score of 10-24; on donepezil 5 mg or 10 mg for at least 6 months; relative or carrier willing and able to support the trial; able to complete trial examinations; primary sensorial functions intact.
The study was a double blind, placebo-controlled, parallel group randomized design. […] The duration of the study was 36 weeks.
Screening procedures consisted of a complete medical history, physical, neurological and ophthalmic examination, blood and urine tests and psychometric tests (ADAS-cog, MMSE). Nerve conduction tests and visual evoked responses were conducted between the screening and baseline visits to provide a baseline measurement. Blood was collected for ApoE allotyping, baseline plasma levels of metals and Aβ prior to randomization. All patients continued their study entry dose of donepezil and all patients received 100 mg vitamin B12 intramuscularly every four weeks.
Blood samples were collected by antecubital venepuncture except on weeks 12, 24 and 36 when they were collected by an indwelling catheter. […] Zn data from these intervals were therefore omitted from analysis.
The primary clinical efficacy variable was a change from baseline score on the ADAS-cog conducted at baseline and at weeks 4, 12, 24 and 36. This measure was chosen to allow comparability of treatment effects with current therapeutics such as donepezil, where efficacy trials also used ADAS-cog as their primary outcome measure (Rogers et al., 1998). Although numerous neuropsychological tests could be considered as secondary measures, it was necessary to avoid fatiguing the subjects at review. Therefore the only other cognitive test was the Mini-Mental State Exam (MMSE). The CIBIC+ (clinician interview based impression of change incorporating caregiver information), a subjective observational index was also conducted. Plasma Aβ, and plasma zinc and copper were all taken every four weeks.
Polystyrene plates were coated with mAb G210 (for Aβ40) or mAb G211 (for Aβ42). Plates were washed and biotinylated mAb WO2 was added. Bound antibody was detected with streptavidin-labelled Europium (Perkin Elmer, Vic Australia). The values obtained from triplicated wells were calculated based on standard curves generated on each plate. Plasma samples supplemented with synthetic Aβ1-40 and Aβ1-42 were also assayed to confirm measurement reliability across the concentration range of interest.
Metals were measured by inductively coupled plasma mass spectrometry as previously described (Cherny et al., 2001).
Standard adverse event reporting was conducted and biochemical tests, renal and liver function, complete blood examination, serum vitamin B12 and folate levels were documented at each visit. To assess for peripheral and optic neuropathy a neurological examination was conducted at each visit, and visual evoked responses, nerve conduction studies and ophthalmic examination were conducted at screening, week 16 and prior to the final trial visit. An ECG was done at screening and weeks 12, 24 and 36.
Data monitoring and management were undertaken by independent contractors (Kendle International and Health Research Solutions, Melbourne). Evidence for efficacy was indicated by a significant difference in change from baseline between treatment arms. […]

Data set [8] relates to APP2576 transgenic mouse. The conditions noted are these: previous studies on transgenic mice, 20-30 mg/kg orally daily five days per week, 2-3 months; cited from earlier work.

Values after ≈ are worked out from the molar mass of the structure shown. Read-outs that look alike come from different tables or passages of the source. Where only a bound is given, the exact number is not on record here.

Turning to `Oc1c(Cl)cc(Cl)c2ccc(-c3ccccn3)nc12` [compound 1052, 5,7-dichloro-8-hydroxy-2-(2-pyridyl)quinoline], in the data set with Neuronal cortical cells (1 uM), the “Test Compound Cytoxicity 1 uM” value is recorded as 63. The “Test Compound Cytoxicity 10 uM” value with Neuronal cortical cells (10 uM) is 32. Further, the “BAS Score” value in data set [1] is recorded as “+”. In addition, the “% inhibition Abeta toxicity” value in [2] turned out to be 19%. Besides, the “Insoluble fraction. % change compared with control.” value with APP2576 transgenic mouse [3] (insoluble Aβ) is listed as −22%. The “Soluble fraction. % change compared with control.” value in the data set with APP2576 transgenic mouse [3] (soluble Aβ) is “negligible”. The solubility is less than 3.1 µg/mL in data set [4] (aqueous buffer, pH 6.5 isotonic phosphate buffer, read-out: Solubility pH 6.5) and 6.3 to 12.5 µg/mL (≈ 21.6 to 42.9 µM) in data set [4] (simulated gastric fluid, 0.01M HCl (approx. pH 2.0), read-out: Solubility (μg/mL) 0.01M HCl). Moreover, the chromatographic logD in [5] was 2.85. For the same compound, in the data set on APP2576 transgenic mouse [6] (plaque score), the “% difference from control (sham treated animal)” value is recorded as −8%. In the data set on APP2576 transgenic mouse [6] (scale 0 to 4), this compound registered a Mean plaque score of 3.2.
On to `Oc1c(I)cc(Cl)c2cccnc12` [PBT-1], for which, in data set [7] (AD patients), the “effect on plasma Cu” value was “no effect”. The “elevation of total plasma Zn” value in data set [7] (AD patients) is “≈ 30%”. Further, the “Steady state pre-dose levels of PBT-1” value stood at 4.03 ± 2.10 µg/mL in data set [7] (total daily dosage 250 mg), 6.74 ± 3.70 µg/mL in data set [7] (total daily dosage 500 mg) and 7.60 ± 2.15 µg/mL in [7] (total daily dosage 750 mg). Also, in data set [7] (from week 20 onwards), the “Plasma Aβ42 change from baseline” value is “significant decline from baseline”. Also, the “difference in mean change from baseline ADAS-cog score of PBT-1 over placebo” value is reported as 7.37 in data set [7] (week 24) and 6.36 in [7] (week 36). Moreover, the “effect of treatment in preventing cognitive deterioration” value in data set [7] (over 36 weeks, more-severely affected patients (baseline ADAS-cog≧25)) was “statistically significant”. The “inhibiting Aβ accumulation” value with APP2576 transgenic mouse [8] is on record as “markedly effective”.
